# What was measured:
# BRD4 BD1 domain = BRD4 BD1 domain (Homo sapiens, UniProt O60885); experiment: TR-FRET binding assay, BRD4 BD1
# BRD4 BD2 = BRD4 BD2 (Homo sapiens, UniProt O60885); experiment: TR-FRET binding assay, BRD4 BD2
# [1] = molecular target: T1, non-BET bromodomain protein CBP (Homo sapiens, UniProt Q92793); experiment: TR-FRET binding assay, CBP
# T1 construct: purchased Cayman Chemical
# Procedure: A series of concentrations of the compound from 0.01 nM to 100 μM were added into a 384 well test plate and mixed with other reaction components based on the instructions from vendor followed by incubation 1 h at room temperature. […] The plates were read in time-resolved format by exciting the sample at 340 nm and reading emissions at 620 and 670 nm, using a 100 μs delay and a 500 μs window at a Tecan M1000 pro reader.
# [2] = tested on: non-specific cellular proteins; experiment: Binding to a broader panel of non-specific cellular proteins
# [3] = tested on: PMA-induced HIV activation in J-Lat cells (10.6); experiment: HIV-suppression model, PMA-stimulated J-Lat cells (GFP, flow cytometry); type: cell-based; conditions: 24 hours; for effect on PMA-induced HIV activation (GFP+%): PMA + compound 10 μM
# [4] = tested on: HIV transcription in J-Lat cells; experiment: qPCR of HIV RNAs (Gag, 3'-LTR) in J-Lat cells; type: cell-based; conditions: for HIV mRNAs (Gag and 3'-LTR RNA levels): PMA-activated J-Lat, 24 hours after treatment
# [5] = tested on: HIV (US-1 strain) in human CD4 T cells; type: cell-based; conditions: for HIV infection in activated CD4 T cells (intracellular p24): 0-8 μM, three days after viral exposure
# HIV in human PBMCs = experiment: qPCR of HIV DNA and Gag RNA in in vitro infected PBMCs; type: cell-based; conditions: PHA-activated PBMCs, 4 μM
# [6] = tested on: HIV in unactivated human CD4 T cells; experiment: HIV in un-activated (resting) CD4 T cells (intracellular p24); type: cell-based; conditions: 2 μM and 4 μM, Day 6
# Procedure: We also evaluated the impact of ZL0580 on HIV in un-activated (resting) CD4 T cells. Normal PBMCs were not stimulated but directly infected with HIV by spinoculation. 24 hours after HIV infection, cells were extensively washed and treated with ZL0580 (2 μM and 4 μM) or not (NC). As expected, compared to activated cells, HIV replication kinetics in un-activated CD4 T cells is slower.
# human PBMCs = type: cell-based
# [7] = tested on: HIV transcription in PBMC of HIV-infected subjects; experiment: Ex vivo HIV Gag RNA in PBMCs of viremic HIV-infected subjects (RV21); type: cell-based; conditions: 2 days
# [8] = tested on: HIV particles from RV21 PBMC; experiment: HIV particles in culture supernatants, reporter TZM-bl assay; type: cell-based; conditions: vs no treatment control
# From the text: We next assessed assess the HIV-suppressive activity of ZL0580 ex vivo. RV21 is ART naïve, chronic HIV infection established by US MHRP and use of PBMC samples from this cohort in our group has been previously published (25). PBMC from RV21 subjects (n=8) were stimulated with PHA to induce HIV transcriptional activation in the absence (0 Mm) or presence of ZL0580 ([…]).
# RV254 PBMCs = experiment: Viability of RV254 PBMCs; type: cell-based, human; conditions: vs ART alone or NC
# [9] = tested on: HIV in BRD4-KO J-Lat cells; type: cell-based
# ELL2 = ELL2 protein (WB) and mRNA (Q-PCR) in J-Lat cells; type: cell-based; conditions: vs PMA alone, WT J-Lat, 24 hours
# Procedure: (§1) Target protein expression in WT and BRD4-KO J-Lat cells (10.6 full length) were measured by western blotting. […] The cells were harvested, washed and then lysed in NP-40 cell lysis buffer (containing 20 mM Tris-HCl, […] of NaCl, 0.2 mM EDTA, 1% NP40, protease inhibitor cocktail, and 1 mM PMSF) by rotation at RT for 1 hour. Cell lysates were centrifuged at 4° C. and the supernatants were collected, followed by measurement of total protein concentration in the supernatants by using Microplate BCA Protein Assay Kit. 20 μg proteins were separated using SDS-PAGE gel and then transferred to Immuno-Blot PVDF Membrane. The membrane was blocked (5% skimmed milk powder in TBST) and then incubated with individual protein-specific antibodies (CDK9, Cyclin T1, Cyclin T2, ELL2, p-RNA Pol II-CTD (Ser2), BRD2, BRD4, NF-κB, or cellular GAPDH) for overnight at 4° C. After washing three times in TBST, the membrane was incubated with anti-rabbit or anti-mouse IgG-HRP, depending on the primary antibody used. The membrane was incubated in Super Signal West Pico Chemiluminescent Substrate. Molecular weights of target proteins were assessed by comparing with markers.
# RNAPII = experiment: Western blot of phosphorylated RNAPII (Ser 2 CTD) in J-Lat cells; type: cell-based; conditions: vs PMA alone
# Procedure: as §1
# CDK9 binding to Tat = experiment: Tat Co-IP, CDK9 binding, J-Lat cells; type: cell-based; conditions: vs PMA alone, 24 hours
# Procedure: Treated J-Lat cells were harvested, washed and lysed in 1 ml NP-40 cell lysis buffer as described above in western blotting. The lysate was cleared by centrifugation and the supernatant was collected. Protein concentration in collected supernatant was measured (Microplate BCA Protein Assay Kit). Equal amounts of proteins from different treatments were incubated with […] of anti-Tat (Thermo Fisher, Cat. No. MA1-71509) or anti-BRD4 (Thermo Fisher, Cat. No. 730037) antibody or normal mouse IgG (Cell Signaling, Cat. No. 5415) for overnight at 4° C. The immune complexes were precipitated by 50 μl protein G-conjugated magnetic beads (Thermo Fisher, Cat. No. 10003D). Beads were washed 6 times using cold NP-40 cell lysis buffer and then subjected to SDS-PAGE electrophoresis. The membranes were immunoblotted with anti-CDK9 primary antibody, followed by incubation with HRP-conjugated secondary antibody.
# CDK9 binding to BRD4 = CDK9 binding to BRD4 (Homo sapiens, UniProt O60885); experiment: BRD4 Co-IP, CDK9 binding, J-Lat cells; type: cell-based; conditions: vs PMA alone, 24 hours
# Tat at HIV 5'-LTR = experiment: CHIP-qPCR, Tat recruitment to HIV promoter; type: cell-based; conditions: J-Lat, 10 μM, 24 hours
# Procedure: ChIP assay was performed using a ChIP-IT Express Kit (Active Modify, USA) according to the manufacturer's instructions. […] Cells were harvested and washed. Cell pellets were re-suspended in 10 ml PBS buffer and fixed with 37% formaldehyde to cross-link DNA and proteins. The fixation reaction was stopped by adding 1.1 ml of 10× Glycine for 5 min at RT. Cells were centrifuged and the supernatants were removed, followed by re-suspension of cells in ice-cold Lysis Buffer on ice for 30 min. Cells were centrifuged at 5,000 rpm for 10 min to pellet the nuclei. Nuclei pellets were re-suspended in 700 μl shearing buffer plus 3.2 μl of PIC and 3.2 μl of PMSF, and were then sonicated using the determined conditions. Sheared chromatin samples were used to set up ChIP reactions by adding the magnetic beads and 5 μg of anti-Tat (1 mg/ml, Thermo Fisher, MA1-71509) or control mouse IgG (2.5 mg/ml, Cell Signaling, #5415) antibody (overnight rotation at 4° C.). After several times of washing by ChIP buffers 2, the chromatin was reverse cross-linked and treated with proteinase K. The eluted DNA were cleaned up with phenol-chloroform and used in real time-PCR. The results were analyzed by the fold enrichment method with the formula % enrichment=2−(CT IP−CT mock).
# BRD4 at HIV 5'-LTR = experiment: CHIP-qPCR, BRD4 binding to HIV promoter; type: cell-based; conditions: activated and resting J-Lat, vs no compound control
# [10] = tested on: HIV LTR chromatin in J-Lat cells; experiment: High-resolution MNase nucleosomal mapping of HIV LTR; type: cell-based; conditions: 10 μM 24 hours, then PMA 24 hours, vs NC
# J-Lat cells = experiment: J-Lat cell viability (Aqua blue, flow cytometry)
# [11] = tested on: BD1 and BD2 of BET proteins (BRD4, BRD2, BRD3, BRDT); experiment: TR-FRET binding to BD1 and BD2 of BET proteins
# From the text: Details are available in the Supplementary Methods.
# [12] = tested on: latent HIV in J-Lat cells (10.6); experiment: HIV-activation screening in J-Lat cells (GFP, flow cytometry); type: cell-based; conditions: compound alone, 10 μM, 24 hours
# T1 sequence (Q92793 1085-1192 limits assumed): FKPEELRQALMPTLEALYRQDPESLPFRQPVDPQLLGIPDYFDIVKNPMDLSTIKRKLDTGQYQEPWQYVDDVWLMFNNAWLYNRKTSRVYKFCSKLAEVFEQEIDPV
smiles,measurement,setting,value
"O=C(Nc1ccc(C(F)(F)F)cc1)Nc1ccc(S(=O)(=O)N2CCCC2C(=O)Nc2ccccc2)cc1 (stereo in doubt) [ZL0580, (R)—N-Phenyl-1-((4-(3-(4-(trifluoromethyl)phenyl)ureido)phenyl)sulfonyl)pyrrolidine-2-carboxamide]",IC50,BRD4 BD1 domain,0.163 µM
same,IC50,BRD4 BD2,1.07 µM
same,IC50,[1],> 10 µM
same,binding activity to non-specific cellular proteins,[2],no or weak binding activity
same,dose dependence of suppression of PMA-induced HIV activation,"[3]; PMA + 0, 1, 10, 20 μM",suppresses PMA-induced HIV activation in dose-dependent manner
same,effect on PMA-induced HIV activation (GFP+%),[3],suppresses PMA-induced HIV activation
same,HIV mRNAs (Gag and 3'-LTR RNA levels),[4],reduces both Gag and 3′-LTR RNA levels
same,HIV reactivation by LRAs after pre-treatment,"[4]; resting J-Lat, single dose 10 μM for 3 days, then SAHA or Prostratin",renders J-Lat cells more resistant to HIV reactivation by SAHA or Prostratin
same,kinetics of HIV transcription (3'-LTR RNA),"[4]; single treatment 10 μM, PMA-activated or resting, Day 2, 7, 14",suppresses both PMA-stimulated and basal HIV transcription through Day 14 after treatment
same,HIV infection in activated CD4 T cells (intracellular p24),[5],suppress HIV in activated human CD4 T cells in a dose-dependent manner
same,productive HIV infection in CD4 T cells,[5]; single treatment 8 μM,almost complete loss of productive HIV infection in CD4 T cells
same,HIV transcription (Gag RNA) in PBMCs,HIV in human PBMCs,reduced HIV transcription in PBMCs
same,cell-associated HIV DNA,HIV in human PBMCs,did not significantly alter HIV DNA levels
same,HIV in unactivated CD4 T cells (p24+%),[6],dose-dependently suppresses HIV in unactivated CD4 T cells
same,concentrations without significant PBMC death,human PBMCs; 0-80 μM,below 40 μM
same,PBMC viability,"human PBMCs; 8 μM vs NC, PHA-activated, 3 days",comparable between NC and ZL0580 treatment
same,HIV Gag mRNA ex vivo,[7]; PHA-stimulated RV21 PBMC (n=8),suppress HIV transcription ex vivo in all eight PBMC samples
same,reduction of RNA levels in some subjects,[7]; PHA-stimulated RV21 PBMC,greater than 10 fold
same,production of HIV particles in cell culture supernatants,[8],significantly reduced
same,toxicity to RV254 PBMCs,RV254 PBMCs,did not cause significant toxicity to these cells
same,"Gag and 3'-LTR RNA expression, vector control cells",[9],substantially inhibit Gag and 3′-LTR RNA expression
same,HIV suppression (GFP) in BRD4-KO cells,[9],failed to induce HIV suppression in BRD4-KO cells
same,HIV suppression in BRD4-KO cells with exogenous BRD4 expression,[9],restored to large extent the ability of ZL0580 to suppress HIV in these cells
same,"inhibition of Gag and 3'-LTR RNA, BRD4-KO cells",[9],largely abrogated in the BRD4-KO cells
same,ELL2 protein,ELL2,substantially reduced ELL2 protein
same,RNAPII activation (phosphorylation of CTD Ser2),RNAPII,reduced RNAII activation
same,CDK9 binding to Tat,CDK9 binding to Tat,reduced CDK9 binding to Tat
same,CDK9 binding to BRD4,CDK9 binding to BRD4,enhanced CDK9 binding to BRD4
same,recruitment of Tat to HIV promoter,Tat at HIV 5'-LTR,reduced Tat recruitment to HIV promoter
same,BRD4 binding to HIV promoter,BRD4 at HIV 5'-LTR,promoted BRD4 binding to HIV promoter
same,nucleosomal DNA protection in HIV LTR,[10],enhanced nucleosomal DNA protection in the majority of amplicon regions (6-20)
same,concentrations without significant cell death,"J-Lat cells; 0-80 μM, 1 & 3 days",below 40 μM
same,cell death vs NC,"J-Lat cells; 10 μM, Day 2, 7 and 14, PMA-activated and un-stimulated",did not cause significant cell death
"Cc1sc2c(c1C)C(c1ccc(Cl)cc1)=N[C@@H](CC(=O)OC(C)(C)C)c1nnc(C)n1-2 [JQ1, reference compound]",binding to BD1 and BD2 of BET proteins,[11],non-selectively binds to both BD1 and BD2 all four BET proteins
same,activation of latent HIV (GFP expression),[12],activates HIV
same,effect on PMA-induced HIV activation (GFP+%),[3],synergistically enhances PMA-stimulated HIV activation
same,HIV mRNAs (Gag and 3'-LTR RNA levels),[4],enhances their levels
same,ELL2 protein,ELL2,increased its level
same,RNAPII activation (phosphorylation of CTD Ser2),RNAPII,potentiated its activation
same,CDK9 binding to Tat,CDK9 binding to Tat,enhanced CDK9 binding to Tat
same,recruitment of Tat to HIV promoter,Tat at HIV 5'-LTR,enhanced binding of Tat to HIV promoter
same,BRD4 binding to HIV promoter,BRD4 at HIV 5'-LTR,reduced this binding
same,nucleosomal DNA protection in HIV LTR,[10],reduced nucleosomal DNA protection in several amplicon regions
COC(=O)[C@@H]1CCCN1S(=O)(=O)c1ccc(NC(=O)Nc2cccc(C(F)(F)F)c2)cc1 [ZL0506],effect on PMA-induced HIV activation (GFP+%),[3],modestly suppress HIV
Cc1cc(N=Nc2ccc(S(=O)(=O)NC3CCCC3)cc2)c(N)cc1O [ZL0454],activation of latent HIV (GFP expression),[12],modestly activate HIV
same,effect on PMA-induced HIV activation (GFP+%),[3],synergistically enhanced PMA-induced HIV activation
same,HIV infection in activated CD4 T cells (intracellular p24),[5],did not suppress HIV in CD4 T cells
